Values quoted from earlier work as cited in patent publication US20260306436A1, “TRETINOIN LIPOSOME FORMULATIONS AND USES THEREOF TO TREAT CANCER” (Highfield BioPharmaceuticals Corporation, priority 2023, published 2026).

Columns and labels:
[1] = background statement
BSA = conditions: stated for the release system with BSA
[2] = background statement; remark: listed apart in the source

Water solubility [1]: very low
Protein binding rate (BSA): 95%
Plasma half-life [2]: short
Compound: CC1=C(/C=C/C(C)=C/C=C/C(C)=C/C(=O)O)C(C)(C)CCC1 [all-trans retinoic acid]
